# Measurements taken from PubChem BioAssay (NCI).
#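 Grown in 96-well plates, cells were treated for 48 hours with each compound at five concentrations. Insufficient inhibition: endpoint recorded as highest concentration tested. The concentration for full growth arrest is given as TGI.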
# How the values were obtained:
# Experiment in all cases: growth of human tumour cells (NCI), 48 h
# [1] = system: SW-620 colon
# [2] = system: NCI-H23 lung
# [3] = system: SF-539 CNS
# [4] = system: NCI-H226 lung
# [5] = system: TK-10 renal
# [6] = system: DMS 114 small cell lung
# [7] = system: 786-0 renal
# [8] = system: SK-MEL-28 melanoma
# [9] = system: HL-60(TB) leukemia
# [10] = system: SF-295 CNS
# [11] = system: U251 CNS
# [12] = system: SF-268 CNS
# [13] = system: HOP-92 NSCLC
# [14] = system: MALME-3M melanoma
# [15] = system: IGROV1 ovarian
# [16] = system: OVCAR-8 ovarian
# [17] = system: UACC-257 melanoma
# [18] = system: OVCAR-4 ovarian
# [19] = system: A498 renal
# [20] = system: CAKI-1 renal
# [21] = system: M14 melanoma
# [22] = system: DLD-1 colon
# [23] = system: HCT-15 colon
# [24] = system: UO-31 renal
# [25] = system: NCI-H460 lung
# [26] = system: ACHN renal
# [27] = system: SK-MEL-2 melanoma
# [28] = system: SNB-78 CNS
# [29] = system: HOP-62 NSCLC
# [30] = system: CCRF-CEM leukemia
# [31] = system: MOLT-4 leukemia
# [32] = system: EKVX NSCLC
# [33] = system: SNB-19 CNS
# [34] = system: HT29 colon
# [35] = system: LXFL 529 NSCLC
# [36] = system: M19-MEL melanoma
# [37] = system: RPMI-8226 leukemia
# [38] = system: XF 498 CNS
# [39] = system: HCC-2998 colon
# [40] = system: A549 NSCLC
# [41] = system: OVCAR-3 ovarian
# [42] = system: RXF 393 renal
# [43] = system: SR leukemia
# [44] = system: HCT-116 colon
# [45] = system: UACC-62 melanoma
# [46] = system: SK-MEL-5 melanoma
# [47] = system: SNB-75 CNS
# [48] = system: KM20L2 colon
# [49] = system: KM12 colon
# [50] = system: K-562 leukemia
# [51] = system: COLO 205 colon
# [52] = system: SK-OV-3 ovarian
# [53] = system: OVCAR-5 ovarian
# [54] = system: LOX IMVI melanoma
# [55] = system: SN12C renal
# [56] = system: DMS 273 small cell lung
# [57] = system: NCI-H522 lung
# [58] = system: HOP-18 NSCLC
smiles,measurement,setting,value
O=C(Nc1ccc(F)cc1)C(=O)C(C1OC(=O)c2ccccc21)[N+](=O)[O-] (configuration not stated),TGI,[1],> 100 µM
same,TGI,[2],> 100 µM
same,TGI,[3],> 100 µM
same,TGI,[4],> 100 µM
same,TGI,[5],> 100 µM
same,TGI,[6],> 100 µM
same,TGI,[7],> 100 µM
same,TGI,[8],> 100 µM
same,TGI,[9],> 100 µM
same,TGI,[10],> 100 µM
same,TGI,[11],> 100 µM
same,TGI,[12],> 100 µM
same,TGI,[13],> 100 µM
same,TGI,[14],> 100 µM
same,TGI,[15],> 100 µM
same,TGI,[16],> 100 µM
same,TGI,[17],> 100 µM
same,TGI,[18],> 100 µM
same,TGI,[19],> 100 µM
same,TGI,[20],> 100 µM
same,TGI,[21],> 100 µM
same,TGI,[22],> 100 µM
same,TGI,[23],> 100 µM
same,TGI,[24],> 100 µM
same,TGI,[25],> 100 µM
same,TGI,[26],> 100 µM
same,TGI,[27],> 100 µM
same,TGI,[28],> 100 µM
same,TGI,[29],> 100 µM
same,TGI,[30],> 100 µM
same,TGI,[31],> 100 µM
same,TGI,[32],> 100 µM
same,TGI,[33],> 100 µM
same,TGI,[34],> 100 µM
same,TGI,[35],> 100 µM
same,TGI,[36],> 100 µM
same,TGI,[37],> 100 µM
same,TGI,[38],> 100 µM
same,TGI,[39],> 100 µM
same,TGI,[40],> 100 µM
same,TGI,[41],> 100 µM
same,TGI,[42],> 100 µM
same,TGI,[43],> 100 µM
same,TGI,[44],> 100 µM
same,TGI,[45],> 100 µM
same,TGI,[46],> 100 µM
same,TGI,[47],> 100 µM
same,TGI,[48],> 100 µM
same,TGI,[49],> 100 µM
same,TGI,[50],> 100 µM
same,TGI,[51],> 100 µM
same,TGI,[52],> 100 µM
same,TGI,[53],> 100 µM
same,TGI,[54],> 100 µM
C1CCN(C2OC3C(COC3N3CCCCC3)OC2OC2CCO[C@@H]2N2CCCCC2)CC1 (some centres not stated),TGI,[1],> 100 µM
same,TGI,[2],78.6 µM
same,TGI,[3],46.8 µM
same,TGI,[4],54.1 µM
same,TGI,[5],> 100 µM
same,TGI,[6],54.7 µM
same,TGI,[7],> 100 µM
same,TGI,[8],> 100 µM
same,TGI,[9],67.8 µM
same,TGI,[10],> 100 µM
same,TGI,[11],> 100 µM
same,TGI,[12],> 100 µM
same,TGI,[13],47.5 µM
same,TGI,[14],83.2 µM
same,TGI,[15],> 100 µM
same,TGI,[16],59.2 µM
same,TGI,[17],88.1 µM
same,TGI,[18],> 100 µM
same,TGI,[19],> 100 µM
same,TGI,[20],> 100 µM
same,TGI,[21],> 100 µM
same,TGI,[22],> 100 µM
same,TGI,[23],> 100 µM
same,TGI,[24],> 100 µM
same,TGI,[25],> 100 µM
same,TGI,[26],> 100 µM
same,TGI,[55],> 100 µM
same,TGI,[27],> 100 µM
same,TGI,[28],56.1 µM
same,TGI,[29],> 100 µM
same,TGI,[30],40.4 µM
same,TGI,[31],84.7 µM
same,TGI,[32],> 100 µM
same,TGI,[33],> 100 µM
same,TGI,[34],> 100 µM
same,TGI,[35],68.5 µM
same,TGI,[37],> 100 µM
same,TGI,[38],37.3 µM
same,TGI,[39],> 100 µM
same,TGI,[40],> 100 µM
same,TGI,[41],89.3 µM
same,TGI,[42],27.5 µM
same,TGI,[56],> 100 µM
same,TGI,[44],> 100 µM
same,TGI,[45],41.8 µM
same,TGI,[46],> 100 µM
same,TGI,[57],25.8 µM
same,TGI,[47],46.2 µM
same,TGI,[48],> 100 µM
same,TGI,[49],> 100 µM
same,TGI,[50],> 100 µM
same,TGI,[51],> 100 µM
same,TGI,[52],> 100 µM
same,TGI,[53],> 100 µM
same,TGI,[54],> 100 µM
O=C(c1cccs1)N(C(=S)N1CCN(c2ccccn2)CC1)C1CCCCC1,TGI,[1],> 100 µM
same,TGI,[2],> 100 µM
same,TGI,[3],> 100 µM
same,TGI,[4],73.8 µM
same,TGI,[5],> 100 µM
same,TGI,[6],> 100 µM
same,TGI,[7],> 100 µM
same,TGI,[8],> 100 µM
same,TGI,[9],> 100 µM
same,TGI,[10],> 100 µM
same,TGI,[11],> 100 µM
same,TGI,[12],> 100 µM
same,TGI,[13],> 100 µM
same,TGI,[14],> 100 µM
same,TGI,[15],> 100 µM
same,TGI,[16],> 100 µM
same,TGI,[17],> 100 µM
same,TGI,[18],> 100 µM
same,TGI,[20],> 100 µM
same,TGI,[21],> 100 µM
same,TGI,[58],> 100 µM
same,TGI,[22],> 100 µM
same,TGI,[23],> 100 µM
same,TGI,[24],> 100 µM
same,TGI,[25],> 100 µM
same,TGI,[26],> 100 µM
same,TGI,[55],> 100 µM
same,TGI,[27],> 100 µM
same,TGI,[28],> 100 µM
same,TGI,[29],> 100 µM
same,TGI,[30],> 100 µM
same,TGI,[31],> 100 µM
same,TGI,[33],> 100 µM
same,TGI,[34],> 100 µM
same,TGI,[35],> 100 µM
same,TGI,[37],> 100 µM
same,TGI,[40],> 100 µM
same,TGI,[41],> 100 µM
same,TGI,[42],> 100 µM
same,TGI,[43],> 100 µM
same,TGI,[56],> 100 µM
same,TGI,[44],> 100 µM
same,TGI,[45],> 100 µM
same,TGI,[46],> 100 µM
same,TGI,[57],> 100 µM
same,TGI,[47],> 100 µM
same,TGI,[48],> 100 µM
same,TGI,[49],> 100 µM
same,TGI,[50],> 100 µM
same,TGI,[51],46.8 µM
same,TGI,[52],> 100 µM
same,TGI,[53],> 100 µM
same,TGI,[54],> 100 µM
